One series deals with sodA gene. Conditions: cited from earlier work.
The nature of series [1]: in vitro. The note with it: clpb promoter-lacz e. coli.
Series [2] can be described thus: micF promoter-lacZ induction (preferred kit, β-galactosidase). The note with it: promoter-lacz bacterial strain.
Series [3] in a line: groE promoter-lacZ induction (preferred kit, β-galactosidase). Conditions: groe promoter-lacz e. coli.
Another series has as its system fepB promoter. Description: fepB promoter-controlled β-galactosidase expression (Example 7). The note with it: 2,2'-dipyridyl 0-160 μM; FIG. 6.
Series [4] relates to dinD promoter.
The subject of series [5] is dinD promoter. The note with it: cited from earlier work.
Series [6] has as its system soi28 promoter. Description: soi28 promoter-lacZ induction (preferred kit, β-galactosidase).
In the next series the test system is nfo promoter. The experiment in a line: nfo promoter-controlled β-galactosidase expression (Example 7).
The subject of series [7] is dinD promoter. The experiment in a line: dinD promoter-controlled β-galactosidase expression (Example 7). Conditions: for dinD controlled β-galactosidase expression: 5 μg/ml, 0 min 321.
The test system of another series is adaA promoter. Description: adaA (ada-alkA) promoter-controlled β-galactosidase expression (Example 7).
Another series deals with DNA strand breaks. Conditions: cited from earlier work.
The nature of series [8]: soi28 promoter-lacZ induction (preferred kit, β-galactosidase). The note with it: promoter-lacz bacterial strain.
The nature of series [9]: in vitro. Conditions: dind promoter-lacz e. coli.
Series [10] in a line: nfo promoter-lacZ induction (preferred kit, β-galactosidase). The note with it: nfo promoter-lacz e. coli.
The subject of another series is topA promoter. Description: topA promoter-lacZ induction (preferred kit, β-galactosidase). The note with it: Escherichia coli, read-out: Fold Induction, topA.
The subject of another series is clpB promoter. Conditions: 0.32 mg/ml.
The next series deals with micF promoter. Description: micF promoter-lacZ induction (preferred kit, β-galactosidase).
The next series concerns ada gene. Conditions: cited from earlier work.
A further series has as its system micF gene. The note with it: cited from earlier work.
Another series concerns katG gene. Conditions: cited from earlier work.
The next series deals with ahp gene. Conditions: cited from earlier work.
The nature of series [11]: katG promoter-lacZ induction (preferred kit, β-galactosidase). The note with it: promoter-lacz bacterial strain.
Another series has as its system merR promoter. Description: merR promoter-lacZ induction (preferred kit, β-galactosidase).
The next series relates to ada promoter. The experiment in a line: ada promoter-lacZ induction (preferred kit, β-galactosidase). Conditions: MMS 470 μM to 1880 μM; FIG. 9.
For the next series, the system named is zwf promoter. Description: zwf promoter-lacZ induction (preferred kit, β-galactosidase). Conditions: Escherichia coli, read-out: Fold Induction, zwf.
The subject of another series is gsh gene. The note with it: cited from earlier work.
A further series relates to proU promoter. Description: proU promoter-controlled β-galactosidase expression (Example 7). The note with it: NaCl 0-0.8M; FIG. 5.
The subject of a further series is soi17 promoter. Description: soi17 promoter-controlled β-galactosidase expression (Example 7). The note with it: NaCl 0-0.8M; FIG. 5.
For series [12], the system named is mutant strains of Salmonella typhimurium. Conditions: cited from earlier work.
The next series relates to nfo gene. Conditions: cited from earlier work.
The subject of the next series is ndh promoter. The experiment in a line: ndh promoter-controlled β-galactosidase expression (Example 7).
Series [13] deals with soi28 promoter. Description: soi28 promoter-controlled β-galactosidase expression (Example 7).
The next series deals with rdc promoter. The note with it: cited from earlier work.
The test system of the next series is zwf gene. Conditions: cited from earlier work.
Where [14] appears, read: 2,2'-dipyridyl 0-160 μM, FIG. 6.

Structures can show the parent of a compound that is named as a salt. Where two headings read alike, the source gives them in different places.

Consider `c1cnc2c(c1)ccc1cccnc12` [1, 10-phenanthroline], for which the sodA gene induction entry in the series with sodA gene is “also induced”.

Turning to `CCCO` [1-propanol], the fold induction in “in vitro [1]” came out at 5.6; in series [2], 4; in series [3], 1.5.

`c1ccc(-c2ccccn2)nc1` [2,2'-dipyridyl]: the “effect on DNA replication (sfiA promoter)” value with sfiA promoter (setting [14]) is listed as “no effect on DNA replication (sfiA promoter)”. For the same compound, the “induction of sodA promoter (superoxide formation)” value in the series with sodA promoter (setting [14]) is “sodA induction”. In the series on sodA gene, the sodA gene induction result is on record as “also induced”. Further, the “induction of fepB promoter (chelating metals)” value in the series on fepB promoter is recorded as “fepB induction”.

In the case of `O=[N+]([O-])c1cc[n+]([O-])c2ccccc12` [4-NQO, 4-nitroquinoline oxide], the “induction of dinD promoter” value in the series with dinD promoter [4] (4-NQO, FIG. 11) is “causes induction of the dinD promoter”; in the series on dinD promoter [7] (4-NQO 0-100 picomolar, FIG. 2) it was “induction of the sfiA and dinD promoters”. For the same compound, in the series on sfiA promoter (4-NQO 0-100 picomolar, FIG. 2), the “induction of sfiA promoter” value is “induction of the sfiA and dinD promoters”. For the same compound, in the series with dinD promoter [5], the dinD induction result is recorded as “Typical inducers of dinD”. Further, the “induction of soi28 promoter” value in the series on soi28 promoter [6] (4-NQO, FIG. 11) was “to a lesser extent”. For the same compound, the “induction of nfo promoter” value in the series on nfo promoter (4-NQO 0-100 picomolar, FIG. 2) is on record as “minor, but dose-dependent induction”. For the same compound, the “induction of adaA promoter (DNA alkylation)” value in the series with adaA promoter (4-NQO 0-100 picomolar, FIG. 2) is listed as “not DNA alkylation (adaA promoter)”.

On to `O=C1O[C@H]([C@@H](O)CO)C(O)=C1O` [Ascorbic acid], for which the “number of hydrogen peroxide induced DNA strand breaks” value with DNA strand breaks was “reduce the number of hydrogen peroxide induced DNA strand breaks”.

Take `ClC(Cl)Cl` [Chloroform]: the fold induction in “in vitro [1]” was determined as 4.5; in series [8] it was 2.

As for `C[S+](C)[O-]` [DMSO], the fold induction in the series “in vitro [1]” worked out at 2; in “in vitro [9]” it was 2.2; in series [10], 1.6. The fold induction at 25 % with topA promoter was found to be 1.7.

In the case of `O=[N+]([O-])c1ccc(F)c([N+](=O)[O-])c1` [Dinitrofluoro benzene], the “Fold Induction, clpB” value with clpB promoter was 2 fold. In the series on micF promoter (0.32 mg/ml), the “Fold Induction, micF” value is given as 3.2 fold.

`O=C(O)CN(CCN(CC(=O)O)CC(=O)O)CC(=O)O` [EDTA]: in the series with sodA gene, the sodA gene induction result was “also induced”.

Turning to `CCOS(C)(=O)=O` [EMS, ethlymethanosulfate], the “ada gene expression induction” value in the series with ada gene is given as “induce ada gene expression”.

As for `CCO` [Ethanol], the micF gene induction entry in the series with micF gene is recorded as “also induced”. In addition, the fold induction in series [2] came out at 2.5; in series [8], 1.7.

For `OO` [Hydrogen peroxide], the katG gene induction result in the series on katG gene was “can be induced”. In the series with ahp gene, the ahp gene induction entry is on record as “induced”. Also, in the series with dinD promoter [5], the dinD induction result is listed as “does not respond to oxidative DNA damage, except when cells are exposed to extremely high concentrations of H2 O2”. For the same compound, the fold induction in the series “in vitro [9]” amounted to 3; in [11] it was 2.

On to `[Cl][Hg][Cl]` [Mercuric chloride], for which the “Fold Induction, merR” value in the series on merR promoter (2 ng/ml) came to 27 fold. Further, the “induction of merR promoter” value in the series with merR promoter (mercuric chloride, FIG. 10) is “specifically induces the merR promoter”.

Take `COS(C)(=O)=O` [Methyl Methane-sulfonate, methyl methanesulfonate]: the “ada gene expression induction” value with ada gene is “induce ada gene expression”. Besides, the “induction of ada promoter” value in the series with ada promoter is recorded as “specifically induces the ada promoter”. Also, the “induction of nfo promoter (oxygen-dependent damage)” value with nfo promoter (MMS 0-40 nM, FIG. 3) is “not oxygen-dependent (nfo promoter)”. In addition, the “induction of dinD promoter (strand breaks)” value in the series with dinD promoter [7] (MMS 0-40 nM, FIG. 3) is recorded as “not via stand breaks (dinD promoter)”. Also, in the series on adaA promoter (MMS 0-40 nM, FIG. 3), the “induction of adaA promoter (DNA alkylation)” value is reported as “induction of the adaA promoter”.

Take `CO[C@@]12[C@H](COC(N)=O)C3=C(C(=O)C(C)=C(N)C3=O)N1C[C@@H]1N[C@@H]12` [Mitomycin C]: the dinD induction result in the series on dinD promoter [5] was “Typical inducers of dinD”. Besides, the “dinD controlled β-galactosidase expression” value with dinD promoter [7] (15 min exposure) came to 350; in the series on dinD promoter [7] (25 min exposure) it was 1036; in the series on dinD promoter [7] (35 min exposure), 811; with dinD promoter [7] (55 min exposure) it was 1204. Besides, the fold induction at 5 µg/mL in the series on dinD promoter [7] (Escherichia coli, 55 min, read-out: dinD promoter induction) is about 4.

`CN(C)C=O` [N,N Dimethyl formamide]: the results for the fold induction (in “in vitro [1]”; in series [2]) were 2.5 and 3.3, respectively. Further, in the series on zwf promoter, the fold induction at 0.8 % is 1.5.

As to `CCN1C(=O)C=CC1=O` [N-ethylmaleimide], the gsh gene induction result in the series with gsh gene is listed as “induced”.

Turning to `[Cl-].[Na+]` [NaCl, sodium chloride], the “induction of sodA promoter (superoxide formation)” value in the series on sodA promoter (NaCl 0-0.8M, FIG. 5) is on record as “no induction of sodA or soi17”. Also, the “induction of proU promoter” value in the series on proU promoter is recorded as “induces the proU promoter”. Also, the “induction of soi17 promoter (superoxide formation)” value in the series on soi17 promoter is listed as “no induction of sodA or soi17”.

Consider `C[n+]1ccc(-c2cc[n+](C)cc2)cc1` [Paraquat], for which, in the series with dinD promoter [4], the “effect on dinD promoter” value is reported as “apparent inhibition”. Moreover, the “response in Ames Assay” value in series [12] is “neither compound produces a positive response”. In addition, the sodA gene induction entry with sodA gene is given as “strongly induced”. Further, in the series with micF gene, the micF gene induction result is reported as “induced”. The nfo induction entry with nfo gene was “specifically induced”. The fold induction at 8000 µg/mL with zwf promoter was determined as 3. Moreover, in the series with micF promoter, the “induction of micF promoter” value was “specific induction of the soi28 and micF promoters”. For the same compound, in the series on merR promoter, the “effect on merR promoter” value was “apparent inhibition”. Further, the “induction of soi28 promoter” value in the series on soi28 promoter [6] was “specific induction of the soi28 and micF promoters”; in the series on soi28 promoter [13] it was “cause induction of the soi28 promoter”. Also, the “induction of ndh promoter” value in the series with ndh promoter is recorded as “negligible effect”. In addition, the “ndh induction, galactosidase activity” value in the series on ndh promoter (50 μM, 0 μM control 464) was determined as 980 units. Besides, in the series with nfo promoter, the “induction of nfo promoter” value is reported as “induced the nfo promoter”. Also, the “nfo induction, galactosidase activity” value with nfo promoter (50 μM, 0 μM control 2952) amounted to 8100 units. The “soi28 induction, galactosidase activity” value with soi28 promoter [13] (50 μM, 0 μM control 670) was 2370 units.

For the compound `Oc1ccccc1` [Phenol], the fold induction in the series “in vitro [1]” amounted to 1.5; in series [3], 2.2.

In the case of `CC(C)(C)c1cc(O)ccc1O` [Tert-butyl hydroquinone], the fold induction at 2000 µM is 2.8 in “in vitro [1]” and 2.6 in series [2].

In the case of `CC1=CC(=O)c2ccccc2C1=O` [menadione], the sodA gene induction result in the series with sodA gene was “strongly induced”. Moreover, in the series with nfo gene, the nfo induction entry is on record as “specifically induced”.

As to `CN(C)c1ccc2nc3ccc(=[N+](C)C)cc-3sc2c1` [methylene blue], the sodA gene induction result in the series on sodA gene is “strongly induced”.

With `C[n+]1c2ccccc2nc2ccccc21` [phenazine methyl sulfate], the sodA gene induction entry in the series on sodA gene is reported as “strongly induced”.

As to `CC1=CC(=O)c2c(O)cccc2C1=O` [plumbagin], the “response in Ames Assay” value in series [12] is “neither compound produces a positive response”. The sodA gene induction result with sodA gene is on record as “strongly induced”. In addition, in the series with soi28 promoter [13] (plumbagin 0-160 μM, FIG. 4), the “induction of soi28 promoter” value is listed as “cause induction of the soi28 promoter”.

For `COC1=C(N)C(=O)c2nc(-c3nc(C(=O)O)c(C)c(-c4ccc(OC)c(OC)c4O)c3N)ccc2C1=O` [streptonigrin], the sodA gene induction result in the series with sodA gene is given as “strongly induced”.

For the compound `OCC(O)CS` (stereo not drawn) [thioglycerol], the rdc promoter induction entry in the series on rdc promoter is listed as “induced”.

Regarding bleomycin, the dinD induction result in the series with dinD promoter [5] is given as “Typical inducers of dinD”.

nitric oxide: the zwf gene induction entry in the series with zwf gene is on record as “induced”.
